What is called IC50 is the point on the concentration scale where inhibition reaches its midpoint. Broadly, the Cmax is the peak of the concentration-time curve. As a reminder, the half-life is the time in which the quantity being followed falls by half. One may read the Vd as a proportionality between amount in the body and measured concentration, not a real space. Usually clearance stands for the volume of plasma or blood freed of the substance per unit of time. For orientation: AUC(0-t) means exposure summed from dosing to a finite time, without extrapolation to infinity. For orientation: Papp means the rate of passage across a membrane or cell layer, normalised by area and donor concentration.

In brackets after ≈: the same amount, converted by molar mass. Where only a bound is given, the exact number is not on record here.

Results on one molecule are retold here after ChEMBL document CHEMBL5579895, “Discovery of TYRA-300: First Oral Selective FGFR3 Inhibitor for the Treatment of Urothelial Cancers and Achondroplasia” (J Med Chem, 2024).

The target in series [1] is Fibroblast growth factor receptor 3 (Homo sapiens, UniProt P22607, K650E). In words: Inhibition of FGFR3 K650E mutant (unknown origin) by mobility shift assay.
Fibroblast growth factor receptor 3 (Homo sapiens, UniProt P22607, K650E), sequence (P22607 23-806 K650E limits assumed): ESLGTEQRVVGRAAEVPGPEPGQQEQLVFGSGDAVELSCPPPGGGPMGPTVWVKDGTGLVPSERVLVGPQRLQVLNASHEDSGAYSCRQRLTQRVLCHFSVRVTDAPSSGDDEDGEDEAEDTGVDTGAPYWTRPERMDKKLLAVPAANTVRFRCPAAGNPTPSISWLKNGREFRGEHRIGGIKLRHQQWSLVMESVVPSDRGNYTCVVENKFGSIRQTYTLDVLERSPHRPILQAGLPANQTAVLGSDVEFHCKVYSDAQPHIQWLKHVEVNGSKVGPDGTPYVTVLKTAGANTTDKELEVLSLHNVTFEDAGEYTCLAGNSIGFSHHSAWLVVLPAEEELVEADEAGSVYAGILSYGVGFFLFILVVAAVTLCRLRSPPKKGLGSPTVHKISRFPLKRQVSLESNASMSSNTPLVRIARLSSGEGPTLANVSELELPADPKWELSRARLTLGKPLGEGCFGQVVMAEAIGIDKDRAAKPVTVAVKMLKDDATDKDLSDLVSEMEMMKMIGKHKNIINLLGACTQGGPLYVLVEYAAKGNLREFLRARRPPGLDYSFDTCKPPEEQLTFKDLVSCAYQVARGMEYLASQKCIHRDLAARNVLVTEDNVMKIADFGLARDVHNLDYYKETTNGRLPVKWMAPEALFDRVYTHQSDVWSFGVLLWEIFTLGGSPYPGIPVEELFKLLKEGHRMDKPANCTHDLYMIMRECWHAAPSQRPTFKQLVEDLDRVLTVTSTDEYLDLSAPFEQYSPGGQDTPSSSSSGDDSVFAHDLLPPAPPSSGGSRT
A short description of series [2]: Oral bioavailability in monkey at 10 mg/kg measured for 24 hrs by LC-MS/MS analysis. Particulars: rhesus monkey, in vivo. In kind it is ADME, organism-based, Macaca mulatta.
Series [3] in a line: Cmax in Sprague-Dawley rat at 10 mg/kg, po measured for 24 hrs by LC-MS/MS analysis. Format: ADME, organism-based. Particulars: in vivo.
Series [4] in a line: Stability in dog hepatocytes assessed as half life at 1 uM incubated upto 180 mins by LC-MS/MS analysis. In kind it is ADME, cell-based, Canis lupus familiaris, Hepatocyte.
Series [5] in a line: Volume of distribution in monkey at 1 mg/kg, iv measured for 24 hrs by LC-MS/MS analysis. Format: ADME, organism-based, Macaca mulatta. The settings on record: rhesus monkey, in vivo.
In series [6] the target is Fibroblast growth factor receptor 3 (Homo sapiens, UniProt P22607, V555L). The series is described as follows: Inhibition of FGFR3 V555L mutant (unknown origin) by mobility shift assay.
Fibroblast growth factor receptor 3 (Homo sapiens, UniProt P22607, V555L), sequence (P22607 23-806 V555L limits assumed): as the sequence (P22607 23-806 K650E limits assumed) above, with V533L, E628K counted along it
A short description of series [7]: Clearance in monkey at 1 mg/kg, iv measured for 24 hrs by LC-MS/MS analysis. Particulars: rhesus monkey, in vivo. Format: ADME, organism-based, Macaca mulatta.
Series [8] in a line: Stability in rat hepatocytes assessed as half life at 1 uM incubated upto 180 mins by LC-MS/MS analysis. In kind it is ADME, cell-based, Hepatocyte.
Series [9] is described as follows: Oral bioavailability in dog at 10 mg/kg measured for 24 hrs by LC-MS/MS analysis. Format: ADME, organism-based, Canis lupus familiaris. The settings on record: in vivo.
Series [10] in a line: AUC (last) in Sprague-Dawley rat at 2 mg/kg, iv measured for 24 hrs by LC-MS/MS analysis. In kind it is ADME, organism-based. Particulars: in vivo.
Series [11] is described as follows: AUC (last) in monkey at 10 mg/kg, po measured for 24 hrs by LC-MS/MS analysis. In kind it is ADME, organism-based, Macaca mulatta. The settings on record: rhesus monkey, in vivo.
In series [12] the target is Leukocyte tyrosine kinase receptor (Homo sapiens, UniProt P29376). In words: Inhibition of human LTK by KINOMEscan analysis.
Leukocyte tyrosine kinase receptor, sequence (P29376 whole entry): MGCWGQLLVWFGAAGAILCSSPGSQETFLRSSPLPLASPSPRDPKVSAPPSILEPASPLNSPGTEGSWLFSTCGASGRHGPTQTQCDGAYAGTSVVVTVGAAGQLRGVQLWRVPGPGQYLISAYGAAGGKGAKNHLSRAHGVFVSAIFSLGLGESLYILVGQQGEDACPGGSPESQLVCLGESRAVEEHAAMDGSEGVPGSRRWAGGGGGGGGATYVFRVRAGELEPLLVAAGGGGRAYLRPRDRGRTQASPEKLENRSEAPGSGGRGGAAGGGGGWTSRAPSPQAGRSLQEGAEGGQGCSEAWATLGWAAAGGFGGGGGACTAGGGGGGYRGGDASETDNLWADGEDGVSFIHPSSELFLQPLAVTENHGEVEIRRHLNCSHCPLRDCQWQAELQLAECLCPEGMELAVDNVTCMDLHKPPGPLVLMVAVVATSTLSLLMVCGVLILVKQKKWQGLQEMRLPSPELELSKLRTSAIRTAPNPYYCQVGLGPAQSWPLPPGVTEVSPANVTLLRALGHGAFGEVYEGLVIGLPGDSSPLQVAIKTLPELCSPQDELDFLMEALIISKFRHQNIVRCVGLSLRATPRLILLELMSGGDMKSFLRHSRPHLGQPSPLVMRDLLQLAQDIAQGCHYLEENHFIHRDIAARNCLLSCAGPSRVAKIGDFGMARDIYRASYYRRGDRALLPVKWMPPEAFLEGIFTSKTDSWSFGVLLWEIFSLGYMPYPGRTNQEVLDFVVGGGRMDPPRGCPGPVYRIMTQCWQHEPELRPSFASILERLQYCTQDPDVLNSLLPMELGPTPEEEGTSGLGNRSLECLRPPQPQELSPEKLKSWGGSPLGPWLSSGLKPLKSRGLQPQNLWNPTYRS
A short description of series [13]: Cmax in dog at 10 mg/kg, po measured for 24 hrs by LC-MS/MS analysis. Format: ADME, organism-based, Canis lupus familiaris. The settings on record: in vivo.
Series [14] concerns the target Vascular endothelial growth factor receptor 2 (Homo sapiens, UniProt P35968). In words: Inhibition of human VEGFR2 by KINOMEscan analysis.
Series [15] can be described thus: Apparent permeability in MDCK-MDR1 cells. Format: ADME, cell-based, Canis lupus familiaris. Particulars: dog.
The nature of series [16]: Thermodynamic solubility in FaSSGF. Format: ADME. Particulars: read-out: Therm_solubility.
The nature of series [17]: Oral bioavailability in Sprague-Dawley rat at 10 mg/kg measured for 24 hrs by LC-MS/MS analysis. Format: ADME, organism-based. Particulars: in vivo.

Vascular endothelial growth factor receptor 2, sequence (P35968 whole entry): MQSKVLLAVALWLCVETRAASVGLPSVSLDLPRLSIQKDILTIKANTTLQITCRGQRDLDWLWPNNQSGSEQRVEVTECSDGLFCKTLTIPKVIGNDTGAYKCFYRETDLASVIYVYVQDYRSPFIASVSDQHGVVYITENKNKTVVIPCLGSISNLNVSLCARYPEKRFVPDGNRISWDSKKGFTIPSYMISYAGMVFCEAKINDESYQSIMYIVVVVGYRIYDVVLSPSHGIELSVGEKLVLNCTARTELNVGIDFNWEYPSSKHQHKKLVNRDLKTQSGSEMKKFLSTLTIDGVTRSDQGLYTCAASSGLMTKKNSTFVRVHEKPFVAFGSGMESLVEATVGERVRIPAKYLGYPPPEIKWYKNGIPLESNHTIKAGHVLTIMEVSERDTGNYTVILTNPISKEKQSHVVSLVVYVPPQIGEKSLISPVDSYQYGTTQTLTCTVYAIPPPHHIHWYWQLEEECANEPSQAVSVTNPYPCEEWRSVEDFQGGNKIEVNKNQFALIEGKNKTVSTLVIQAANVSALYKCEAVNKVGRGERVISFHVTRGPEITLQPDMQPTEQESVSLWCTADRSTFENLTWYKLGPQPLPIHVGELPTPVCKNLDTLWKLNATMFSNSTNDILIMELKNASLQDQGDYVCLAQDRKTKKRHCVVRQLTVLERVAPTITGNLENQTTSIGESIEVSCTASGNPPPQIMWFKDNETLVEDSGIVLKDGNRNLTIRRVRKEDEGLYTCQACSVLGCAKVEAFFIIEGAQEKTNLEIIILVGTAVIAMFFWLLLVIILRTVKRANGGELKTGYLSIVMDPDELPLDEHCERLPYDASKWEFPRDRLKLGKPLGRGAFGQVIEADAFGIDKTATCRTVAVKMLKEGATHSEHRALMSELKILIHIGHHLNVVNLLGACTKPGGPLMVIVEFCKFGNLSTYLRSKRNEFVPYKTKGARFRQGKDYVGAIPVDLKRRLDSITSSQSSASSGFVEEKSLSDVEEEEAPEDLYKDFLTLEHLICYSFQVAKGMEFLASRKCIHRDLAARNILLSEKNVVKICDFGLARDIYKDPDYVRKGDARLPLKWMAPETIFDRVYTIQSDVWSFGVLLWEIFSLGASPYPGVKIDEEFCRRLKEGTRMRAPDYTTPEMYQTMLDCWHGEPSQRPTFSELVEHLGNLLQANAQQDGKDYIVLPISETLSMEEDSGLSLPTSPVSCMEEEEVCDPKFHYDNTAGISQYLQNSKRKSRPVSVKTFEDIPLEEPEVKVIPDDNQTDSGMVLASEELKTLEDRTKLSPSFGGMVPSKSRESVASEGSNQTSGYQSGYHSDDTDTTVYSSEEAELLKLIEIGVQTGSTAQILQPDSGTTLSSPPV

For `C[C@@H](Oc1ccc2[nH]nc(-c3ccc(N4CC5(C4)CN(S(C)(=O)=O)C5)nc3)c2c1)c1c(Cl)cncc1Cl`, the IC50 was 0.0028 µM in [1], 0.0015 µM in series [6], 0.065 µM in series [12] and 0.325 µM in [14]. For the same molecule, the bioavailability in series [2] is 106%; in series [9], 98%; in series [17], 39%. The highest concentration (Cmax) was 802 ng/mL in [3] and 3090 ng/mL in [13]. Moreover, the values for the half-life at 1 µM in series [4] and in series [8] were above 1.67 h and 1.23 h, respectively. Further, the Vd in series [5] is 0.94 L/kg. Besides, the clearance in series [7] is 11.1 mL/min/kg. The AUC(0-t) at 24 h turned out to be 1730 ng·h/mL in series [10] and 15900 ng·h/mL in series [11]. The Papp in series [15] amounted to 1 ×10⁻⁶ cm/s. Further, the solubility thermodynamic in series [16] is 34 µM (≈ 19 µg/mL).
